The values below come from patent publication US20260223838A1, “ANTIMICROBIAL MASTERBATCHES AND POWDERS COMPRISING A SYNERGISTIC BLEND OF COMPONENTS” (priority 2023, published 2026).

This experiment concerns E. coli (ATCC 8739). Put plainly: Zone of Inhibition (ZOI) of pressed powder pellets. To be noted: against E. coli after 24 h incubation at 37° C.

Method: Zone of Inhibition (ZOI). […] The cultures were streaked on Luria Agar (LB) plates and incubated overnight at 37° C. […] 50 μL of this stock suspension was spread homogeneously on a trypticase soy agar (TSA) plate (diameter 10 cm).

For `[O]=[Mo](=[O])=[O]` [molybdenum oxide, molybdenum (VI) oxide], the “diameter of the ZOI” value turned out to be 19 mm.
As for Zinc borate, the entry is “No ZOI”.
As for basic copper (II) carbonate [BCC], the figure is 12 mm.
